The record followed here is article PMC12164071, “Lysine targeting covalent inhibitors of malarial kinase PfCLK3” (RSC Medicinal Chemistry, 2025).

A short description of data set [1]: Human cell viability assay (resazurin). The conditions noted are these: HepG2, 48 hours, errors SD, N ≥ 3. As to the method:
Cytotoxicity was assessed in HepG2 cells to complement the selectivity evaluations (Fig. 7). […]
Human cell viability assay.
Mycoplasma tested HepG2 cells were cultured in Dulbecco’s Modified Eagle Medium
(DMEM) with 10% fetal bovine serum, 1% non-essential AA, 1% sodium pyruvate, 1% Pen-
strep and 100ug/mL Normocin. Cultures were incubated at 37 ℃, 5% CO2. Cells were
detached using 0.05% trypsin-EDTA. 500nL of drug compound dilutions, in triplicate, were
added to 384-well, black, clear bottom assay plates using a Mosquito liquid handling
machine. Assay plates, containing compound dilutions, were seeded at 5,000 cells/well and
incubated for 48 hours. 40uM final concentration resazurin, diluted in DPBS, was added to
the assay plates which were then incubated for 4 hours and analysed using a ClariostarTM
plate reader to measure fluorescence Intensity (545-20nm/600-40nm). 3 control compounds
were included on every assay plate, Tamoxifen, Puromycin and TCMDC-135051. Maximum
signal control was obtained from wells with DMSO only and minimum signal control with
Tamoxifen 100uM. These were used to normalise data and give percentage inhibition of
metabolic activity. Experiments were performed N=3 and normalised data was grouped and a
nonlinear regression curve with four parameters was plotted using GraphPad Prism,
generating activity data. […]
A general note: Resazurin is reduced to fluorescent resorufin, in cell work by metabolically active cells.

Data set [2] deals with PfCLK3 kinase domain (amino acid residues 334–699). As to the kind of experiment: Intact protein LC-MS for covalent adduct formation. Format: binding, Plasmodium falciparum. The conditions noted are these: for covalent adduct formation with PfCLK3 kinase domain: pH 7.4, 1:5 protein to compound ratio. As to the method: All compounds were then evaluated for covalent binding with PfCLK3 kinase domain (amino acid residues 334–699) using intact protein LC-MS (Fig. 3). Compounds were incubated at pH 7.4 in a 1 : 5 protein to compound ratio and analysed for covalent adduct formation using ESI TOF. […] Compounds 8 and 9 yielded a fully modified species at 43 957 Da, which can be attributed to the mass of the apo protein + the mass of the pyridinium product adduct. A minor mass (20–25%) of 44 378 Da was also detected, consistent with a doubly modified PfCLK3 kinase domain. This implies that cross reactivity with non-catalytic lysine residues is possible using the ethynyl benzaldehyde functionality, although a minor product. […]
dialyzing the protein into a final buffer containing 20 mM HEPES pH 7.4, 150 mM NaCl, 1 […]
PfCLK3 kinase domain (residues 334–699 with a C-terminal TEV cleavage sequence and His6-tag) was cloned into pFastBac vector and expressed and purified from Sf21 insect cells.
Cells were infected using P2 BIICs at an MOI of 0.2 and left to express for 72 h. Harvested cells were lysed and centrifuged before purifying using IMAC and SEC in a final buffer containing 20 mM HEPES pH 7.4, 150 mM NaCl, 1 mM TCEP, and 1 mM MgCl2.
Protein Mass Spectrometry
For intact protein mass spectrometry, compounds were incubated with a 5-fold excess of compound in buffer containing 20 mM HEPES pH 7.4, 150 mM NaCl, 1 mM TCEP, and 1 mM MgCl 2. 5 μL of kinase domain (1 mg/mL) was added to 25 μL of buffer before 0.12 μL of compound in a 10 mM DMSO stock was added to start the incubation. Samples were incubated at room temperature for 4 hours before 10 μL alliquots were analysed by LC-MS.
Intact protein LC-MS experiments were performed on a Synapt G2 Q-ToF instrument equipped with electrospray ionisation (Waters Corp., Manchester, UK). LC separation was achieved using an Acquity UPLC equipped with a reverse phase C4 Aeris Widepore 50 × 2.1 mm HPLC column (Phenomenex, CA, USA) and a gradient of 5–95% acetonitrile (0.1% formic acid) over 10 minutes was employed. Data analysis was performed using MassLynx v4.1 and deconvolution was performed using MaxEnt. […]

A further data set deals with recombinant PfCLK3 (Plasmodium falciparum, UniProt Q8IIL5). As to the kind of experiment: TR-FRET kinase assay at Km ATP. Type of data set: biochemical. The conditions noted are these: 2 hour incubation, errors SD, N ≥ 3, * concentration response curve not complete. As to the method: All compounds were then evaluated against recombinant PfCLK3 using a TR-FRET kinase assay (Fig. 5). […]
Chain of recombinant PfCLK3 (Q8IIL5 entry or part of it): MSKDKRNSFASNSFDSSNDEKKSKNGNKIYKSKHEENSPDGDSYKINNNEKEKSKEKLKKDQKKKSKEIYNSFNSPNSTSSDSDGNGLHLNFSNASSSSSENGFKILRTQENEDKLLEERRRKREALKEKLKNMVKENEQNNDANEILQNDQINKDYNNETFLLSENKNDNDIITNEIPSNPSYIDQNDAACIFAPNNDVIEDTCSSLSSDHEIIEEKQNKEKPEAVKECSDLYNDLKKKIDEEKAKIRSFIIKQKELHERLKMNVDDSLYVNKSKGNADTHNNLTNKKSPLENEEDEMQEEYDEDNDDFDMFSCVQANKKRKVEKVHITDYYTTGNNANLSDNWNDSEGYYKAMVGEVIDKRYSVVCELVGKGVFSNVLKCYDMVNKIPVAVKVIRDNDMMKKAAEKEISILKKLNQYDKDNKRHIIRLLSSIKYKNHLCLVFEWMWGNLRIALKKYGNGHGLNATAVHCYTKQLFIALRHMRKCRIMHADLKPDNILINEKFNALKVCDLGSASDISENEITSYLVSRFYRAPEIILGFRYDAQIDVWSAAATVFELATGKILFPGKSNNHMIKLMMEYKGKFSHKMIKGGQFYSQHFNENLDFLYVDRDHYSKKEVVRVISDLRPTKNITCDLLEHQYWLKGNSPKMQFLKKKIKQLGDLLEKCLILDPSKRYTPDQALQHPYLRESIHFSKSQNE
Time Resolved Förster Resonance Energy Transfer (TR-FRET) Assay
Tr-FRET technology was used to determine kinase activity and Km ATP before profiling compounds. An 11-point half-log serial dilution of each test compound was prepared in 100% DMSO at 100X final test concentration. The dilution series were dispensed onto assay plates with liquid handling machinery using positive displacement. The final DMSO concentration in the assay was 1%. To obtain IC 50 values, full length recombinant PfCLK3 was prepared in 1X assay buffer (50 mM Hepes, 10 mM MgCl2, 1 mM EGTA, 0.01% Tween20, 2 mM TCEP) at a 2X concentration and incubated with compounds for 15 minutes at room temperature before addition of ULight-labelled peptide substrate (MBP) with Km ATP (at 2X concentration). The reaction was centrifuged and incubated for 2 hr at 37 °C. To stop the reaction, 1X Lance detection buffer was added with 1 nM Eu-labelled anti-MBP and 10 mM EDTA, and the reaction was incubated in the dark for 2 hr at room temperature to allow detection to take place. Plate output was read on a Pherastar FSX and data analysed in Graphpad Prism to a 4-parameter curve fit. […]
On the technique in general: In TR-FRET formats the signal depends on donor and acceptor labels being close together.

The mark [3] stands for this setting: pH 7.4, 1:5 protein to compound, 4 hours room temperature, compound 4 with C-terminal His-tag construct.

SMILES strings stand for the structures. “And” between values parts separate entries of the source, which are not always exact repeats. Equal values may be shown once. “Also recorded” adds a separate entry of the source.

Turning to `CCN(CC)Cc1ccc(OC)c(-c2cc3c(-c4ccc(O)c(C=O)c4)ccnc3[nH]2)c1` [Compound 4], the cytotoxic concentration (CC50) at 48 h in data set [1] (CC50 (HepG2)) is 5.25 ± 2.47 µM; in data set [1] (pCC50 (HepG2)), 5.25 µM. Further, the “partial covalent bond formation, modification” value in data set [2] (imine adduct) was 32–60%. Moreover, the “covalent adduct formation with PfCLK3 kinase domain” value in data set [2] is given as “showed covalent adduct formation; also recorded: formed a covalent adduct with PfCLK3”. Moreover, the “Relative Ratio, assignment apo” value in data set [2] (setting [3]) is 40. Besides, the “Relative Ratio, assignment holo (singly modified)” value in data set [2] (setting [3]) was found to be 60. The IC50 was 16 ± 9 nM at recombinant PfCLK3 (IC50 (apparent), Km ATP (5 μM)) and 16.2 nM on recombinant PfCLK3 (pIC50, Km ATP (5 μM)).

`C#Cc1ccc(-c2c[nH]c3ncc(-c4cc(CN(CC)CC)ccc4OC)cc23)cc1C=O` [Compound 9]: the CC50 at 48 h is 7.94 ± 1.29 µM in data set [1] (CC50 (HepG2)) and 7.94 µM in data set [1] (pCC50 (HepG2)). Moreover, the “doubly modified PfCLK3 kinase domain, minor mass abundance” value in data set [2] (44 378 Da species) was 20–25% and ~20%. Further, in data set [2], the “covalent adduct formation with PfCLK3 kinase domain” value was “showed covalent adduct formation; also recorded: formed a covalent adduct with PfCLK3”. Further, the “Relative Ratio, assignment holo (doubly modified)” value in data set [2] (pH 7.4, 1:5 protein to compound, 4 hours room temperature) was 20. For the same molecule, the “Relative Ratio, assignment holo (singly modified)” value in data set [2] (setting [3]) came to 80. Also, the 50% inhibitory concentration (IC50) at recombinant PfCLK3 (IC50 (apparent), Km ATP (5 μM)) is 16 ± 4 nM; at recombinant PfCLK3 (pIC50, Km ATP (5 μM)), 16.6 nM.

A word on the CC50: it is the concentration at which the toxic effect on the cells reaches its halfway point. Read a high CC50 as lower toxicity to the cells. As usually defined, the IC50 is the concentration needed to halve the response being measured.
